In ChEMBL document CHEMBL5634121, “Discovery of novel G9a/GLP covalent inhibitors for the treatment of triple-negative breast cancer” (Eur J Med Chem, 2023):
Activity calls are given as the source filed them. The calls are words filed in the database; no cut-off is given here.

How the values were obtained:
[1] = AUC(0 to infinity) in ICR mouse at 2 mg/kg, iv measured upto 12 hrs by LC-MS/MS analysis; type: ADME, organism-based; conditions: in vivo
[2] = molecular target: T1, Histone-lysine N-methyltransferase EHMT2 (Homo sapiens, UniProt Q96KQ7); assay: Inhibition of G9a (unknown origin)
T1 sequence (Q96KQ7 whole entry): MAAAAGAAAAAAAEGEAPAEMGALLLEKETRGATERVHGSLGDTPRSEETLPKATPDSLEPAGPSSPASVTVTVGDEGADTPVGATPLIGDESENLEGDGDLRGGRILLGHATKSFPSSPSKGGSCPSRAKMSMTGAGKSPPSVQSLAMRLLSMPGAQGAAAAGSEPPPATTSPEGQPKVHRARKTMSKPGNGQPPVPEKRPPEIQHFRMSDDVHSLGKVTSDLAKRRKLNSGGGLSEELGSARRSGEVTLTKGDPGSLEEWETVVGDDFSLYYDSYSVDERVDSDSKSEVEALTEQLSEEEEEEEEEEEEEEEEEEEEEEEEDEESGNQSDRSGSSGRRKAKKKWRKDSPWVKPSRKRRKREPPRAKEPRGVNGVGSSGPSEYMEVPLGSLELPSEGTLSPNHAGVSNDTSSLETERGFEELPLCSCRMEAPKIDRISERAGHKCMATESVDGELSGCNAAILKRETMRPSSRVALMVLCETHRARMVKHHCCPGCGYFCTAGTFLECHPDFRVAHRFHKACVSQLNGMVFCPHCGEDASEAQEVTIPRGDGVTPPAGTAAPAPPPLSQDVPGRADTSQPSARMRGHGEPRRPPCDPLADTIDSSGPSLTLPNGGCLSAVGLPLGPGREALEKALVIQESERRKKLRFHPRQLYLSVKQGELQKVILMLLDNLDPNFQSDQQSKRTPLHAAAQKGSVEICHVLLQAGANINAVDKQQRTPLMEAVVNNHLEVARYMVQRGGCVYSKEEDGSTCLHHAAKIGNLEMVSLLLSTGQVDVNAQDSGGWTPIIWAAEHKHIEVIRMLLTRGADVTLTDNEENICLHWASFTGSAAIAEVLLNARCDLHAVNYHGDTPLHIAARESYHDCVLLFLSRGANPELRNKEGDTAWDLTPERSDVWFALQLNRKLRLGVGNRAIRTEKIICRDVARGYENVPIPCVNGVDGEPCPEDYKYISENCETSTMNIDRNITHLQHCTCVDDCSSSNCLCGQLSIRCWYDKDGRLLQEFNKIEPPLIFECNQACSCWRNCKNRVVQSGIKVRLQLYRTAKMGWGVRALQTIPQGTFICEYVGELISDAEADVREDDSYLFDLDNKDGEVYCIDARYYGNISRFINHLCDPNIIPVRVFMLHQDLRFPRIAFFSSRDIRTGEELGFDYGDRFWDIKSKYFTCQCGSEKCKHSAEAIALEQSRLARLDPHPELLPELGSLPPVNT

[3] = system: MDA-MB-231; assay: Induction of apoptosis in human MDA-MB-231 cells assessed as necrotic cells at 10 uM incubated for 72 hrs by Annexin V and PI staining based flow cytometry analysis (reference value: 0.32 %); type: functional
[4] = system: MDA-MB-231; assay: Induction of cell cycle arrest in human MDA-MB-231 cells assessed as accumulation of cells at G2/M phase incubated for 72 hrs by PI/RNase staining based flow cytometric analysis; type: functional; conditions: dose 5-20 µM
[5] = AUC(0 to t) in ICR mouse at 2 mg/kg, iv measured upto 12 hrs by LC-MS/MS analysis; type: ADME, organism-based; conditions: in vivo
[6] = system: MDA-MB-231; assay: Induction of apoptosis in human MDA-MB-231 cells assessed as early apoptotic cells at 5 uM incubated for 72 hrs by Annexin V and PI staining based flow cytometry analysis (reference value: 0.92 %); type: functional
[7] = molecular target: T2, Histone-lysine N-methyltransferase EHMT1 (Homo sapiens) (UniProt Q9H9B1); assay: Inhibition of GLP (unknown origin) at 1 uM
T2 sequence (whole entry): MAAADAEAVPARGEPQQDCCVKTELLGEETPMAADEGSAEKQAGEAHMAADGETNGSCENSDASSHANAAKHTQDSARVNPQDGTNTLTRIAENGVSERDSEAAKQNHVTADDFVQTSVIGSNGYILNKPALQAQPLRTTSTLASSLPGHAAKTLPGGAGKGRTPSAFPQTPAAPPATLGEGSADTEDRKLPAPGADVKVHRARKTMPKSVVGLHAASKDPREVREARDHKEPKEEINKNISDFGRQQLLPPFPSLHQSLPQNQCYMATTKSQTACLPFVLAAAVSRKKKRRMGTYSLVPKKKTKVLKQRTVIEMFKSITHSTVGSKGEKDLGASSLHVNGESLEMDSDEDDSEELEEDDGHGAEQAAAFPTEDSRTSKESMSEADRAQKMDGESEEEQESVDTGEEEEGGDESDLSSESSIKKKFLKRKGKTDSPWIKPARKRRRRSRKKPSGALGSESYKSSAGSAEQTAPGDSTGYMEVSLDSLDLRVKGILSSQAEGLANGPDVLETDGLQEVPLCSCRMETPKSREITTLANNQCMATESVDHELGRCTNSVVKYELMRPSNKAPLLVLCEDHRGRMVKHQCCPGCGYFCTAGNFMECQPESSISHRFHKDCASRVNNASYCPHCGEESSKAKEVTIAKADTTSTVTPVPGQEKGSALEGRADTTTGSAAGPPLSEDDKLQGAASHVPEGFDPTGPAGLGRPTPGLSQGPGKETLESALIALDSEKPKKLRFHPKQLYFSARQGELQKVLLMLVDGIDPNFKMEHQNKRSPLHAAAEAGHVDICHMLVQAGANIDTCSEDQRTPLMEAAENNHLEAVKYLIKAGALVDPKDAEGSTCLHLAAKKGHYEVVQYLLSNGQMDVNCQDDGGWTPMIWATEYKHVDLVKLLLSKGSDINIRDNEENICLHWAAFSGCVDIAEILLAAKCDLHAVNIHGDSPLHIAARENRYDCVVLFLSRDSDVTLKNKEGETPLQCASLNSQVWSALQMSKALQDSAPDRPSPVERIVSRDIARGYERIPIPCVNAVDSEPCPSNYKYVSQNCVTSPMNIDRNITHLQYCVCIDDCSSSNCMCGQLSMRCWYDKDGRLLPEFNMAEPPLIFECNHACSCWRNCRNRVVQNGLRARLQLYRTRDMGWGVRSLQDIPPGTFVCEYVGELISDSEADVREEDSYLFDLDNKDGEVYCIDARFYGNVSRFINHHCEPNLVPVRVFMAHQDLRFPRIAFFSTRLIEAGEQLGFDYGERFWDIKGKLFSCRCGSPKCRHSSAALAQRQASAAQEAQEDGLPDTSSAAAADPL

[8] = system: MDA-MB-231; assay: Induction of apoptosis in human MDA-MB-231 cells assessed as late apoptotic cells at 10 uM incubated for 72 hrs by Annexin V and PI staining based flow cytometry analysis (reference value: 0.45 %); type: functional
[9] = system: MDA-MB-231; assay: Induction of apoptosis in human MDA-MB-231 cells assessed as early apoptotic cells at 10 uM incubated for 72 hrs by Annexin V and PI staining based flow cytometry analysis (reference value: 0.92 %); type: functional

- AUC(0-inf) [1]: 1690 ng·h/mL
- IC50 [2]: 1220 nM
- AUC(0-t) at 12 h [5]: 1650 ng·h/mL
- inhibition [7]: Active
SMILES: C=CC(=O)Nc1cccc(-c2nc(NC3CCN(C)CC3)c3cc(OC)c(OC)cc3n2)c1
- Activity [3]: 1.28%
- Activity [4]: Dose-Dependent Effect
- Activity [6]: 1.44%
- Activity [8]: 5.89%
- Activity [9]: 3.7%
